# Test results published in US8892197B2, “Method and apparatus to control conduction through the heart to treat cardiac conditions” (Medtronic, Inc., priority 2005, dated 2014).
# Legend:
# [1] = system: AVN conduction and refractoriness; assay: Incremental ACH infusion into the AVN: ventricular rate during electrically induced AF, AVN refractoriness, intervals, blood pressure; type: in vivo, Canines; settings: for Ventricular rate during electrically induced AF: infusion into AVN, decreased from 182±32
# Source text: (§1) This study evaluated the effect of locally administered acetylcholine (ACH) on AVN conduction and refractoriness properties during sinus rhythm and AF. Canines (n=7) were anesthetized, and instrumented to assess atrial and ventricular electrophysiology as well as arterial blood pressure. A custom drug delivery catheter was fixed into the AVN region using a combination of standard electrophysiological mapping techniques and image guided therapy via a cardiac navigation system.
# Subsequently, incremental doses of ACH starting at 10 ug/min were infused into the AVN until complete atrioventricular heart block (AVB) was observed.
# AVN conduction = assay: AV block duration after ACH bolus, direct AVN injection vs. intravenous, anesthetized canines; type: in vivo
# Source text: as §1
# [2] = Intravenous Bolus (n = 5), identical dose
smiles,measurement,setting,value
"CC(=O)OCC[N+](C)(C)C [ACH, acetylcholine]","PP intervals, HV intervals and blood pressure",[1]; ACH dose producing first AVB,remained unchanged
same,Time to full reversal of observed effects after stopping ACH infusion,[1]; after stopping infusion into AVN,≤ 20 min
same,Ventricular rate during electrically induced AF,"[1]; dosage inducing first degree AVB, p<0.05",77±28 bpm
same,Ventricular rate during electrically induced AF,"[1]; dosage inducing third degree AVB, p<0.05",28±8 bpm
same,AVN effective refractory period (ERP),"[1]; first degree AVB dose, pacing cycle length 400 msec, increased from 186±37, p=0.06",282 ± 33 ms
same,Wenckebach cycle length,"[1]; first degree AVB dose, increased from 271±29, p<0.05",378 ± 58 ms
same,AV Block III duration,AVN conduction; Direct AVN Bolus (n = 6),12.30 ± 4.72 min
same,"Overall AV Block duration (AV block I, II and III)",AVN conduction; Direct AVN Bolus (n = 6),41.19 ± 27.14 min
same,AV Block III duration,AVN conduction; [2],0.00 ± 0.00 min
same,"Overall AV Block duration (AV block I, II and III)",AVN conduction; [2],0.31 ± 0.43 min
